For 36 compounds, IC50 results are on record in patent publication US8324245B2, “Quinoline derivative and quinazoline derivative inhibiting self-phosphorylation of hepatocytus proliferator receptor, and medicinal composition containing the same” (Kyowa Hakko Kirin Co., Ltd., priority 2001, dated 2012).

The target in the experiment is T1, met (HGF receptor) in human gastric cancer cells MKN45 (Homo sapiens, UniProt P08581).
T1 construct: endogenous in cells; host or cells: MKN45 human gastric cancer cells
T1 sequence (P08581 25-1390): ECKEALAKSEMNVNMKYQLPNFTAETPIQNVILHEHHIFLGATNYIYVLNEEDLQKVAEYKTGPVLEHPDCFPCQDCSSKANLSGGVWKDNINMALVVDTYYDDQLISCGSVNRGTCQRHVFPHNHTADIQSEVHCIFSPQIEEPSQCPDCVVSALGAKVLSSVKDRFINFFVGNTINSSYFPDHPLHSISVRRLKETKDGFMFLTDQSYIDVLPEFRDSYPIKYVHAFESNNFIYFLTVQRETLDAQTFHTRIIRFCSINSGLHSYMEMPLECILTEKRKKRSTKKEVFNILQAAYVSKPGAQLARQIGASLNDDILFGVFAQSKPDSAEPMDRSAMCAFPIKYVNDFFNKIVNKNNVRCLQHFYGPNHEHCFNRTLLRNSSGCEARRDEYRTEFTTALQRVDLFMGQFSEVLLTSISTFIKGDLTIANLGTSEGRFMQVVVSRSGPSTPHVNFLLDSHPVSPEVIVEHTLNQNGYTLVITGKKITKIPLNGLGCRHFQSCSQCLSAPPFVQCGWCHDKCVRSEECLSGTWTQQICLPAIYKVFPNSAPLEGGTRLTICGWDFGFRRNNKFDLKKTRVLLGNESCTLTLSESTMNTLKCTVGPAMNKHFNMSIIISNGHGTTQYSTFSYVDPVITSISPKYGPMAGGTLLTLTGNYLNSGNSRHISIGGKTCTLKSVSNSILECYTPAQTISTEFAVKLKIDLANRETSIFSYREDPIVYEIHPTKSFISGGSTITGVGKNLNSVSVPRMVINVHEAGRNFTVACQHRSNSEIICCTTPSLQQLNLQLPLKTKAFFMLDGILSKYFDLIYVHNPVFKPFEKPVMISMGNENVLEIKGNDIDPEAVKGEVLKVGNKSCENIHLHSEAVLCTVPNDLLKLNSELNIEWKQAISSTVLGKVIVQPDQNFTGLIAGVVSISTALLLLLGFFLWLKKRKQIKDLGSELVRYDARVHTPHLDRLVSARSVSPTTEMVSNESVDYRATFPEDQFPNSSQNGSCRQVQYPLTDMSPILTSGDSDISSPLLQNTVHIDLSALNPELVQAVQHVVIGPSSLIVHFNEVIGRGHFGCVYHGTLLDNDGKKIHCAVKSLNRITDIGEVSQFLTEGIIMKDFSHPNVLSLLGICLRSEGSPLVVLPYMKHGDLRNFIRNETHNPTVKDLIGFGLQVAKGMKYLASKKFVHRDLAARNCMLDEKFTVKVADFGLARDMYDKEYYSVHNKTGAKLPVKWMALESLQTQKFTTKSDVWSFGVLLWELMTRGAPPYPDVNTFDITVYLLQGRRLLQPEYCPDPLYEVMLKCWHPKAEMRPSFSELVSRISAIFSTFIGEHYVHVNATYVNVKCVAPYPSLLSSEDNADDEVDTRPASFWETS
As to the kind of experiment: Inhibitory activity against met-autophosphorylation using ELISA method (2), MKN45 cells, HGF-independent. Type of experiment: cell-based. A digest of the protocol: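 Met autophosphorylation was read by sandwich ELISA: phosphotyrosine capture (PY20), anti-HGF receptor detection, peroxidase read-out at 450 nm. Lysates came from MKN45 gastric cancer cells kept in 0.1% FCS RPMI and treated 1 h at 37 °C with test compound, with no added HGF.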
Broadly, the IC50 is the concentration that inhibits the measured activity by half. Take `COc1cc2nccc(Oc3ccc(NC(=O)NC(=O)Cc4ccccc4C(F)(F)F)cc3F)c2cc1OC` [Example 137, 1-[4-(6,7-dimethoxyquinolin-4-yloxy)-3-fluorophenyl]-3-[2-(2-trifluoromethylphenyl)acetyl]urea]: half-maximal inhibition (IC50) required 271 nM. This lies in the sub-micromolar range.

In turn, `COc1cc2c(Oc3ccc(NC(=O)NC(=O)Cc4ccc(F)cc4)c(F)c3)ccnc2cc1OCCCN1CCCCC1` [Example 50, 1-{2-fluoro-4-[6-methoxy-7-(3-piperidin-1-yl-propoxy)quinolin-4-yloxy]phenyl}-3-[2-(4-fluorophenyl)-acetyl]urea] showed an IC50 of 235 nM. This IC50 and that of the compound before are within 1.5-fold of each other.

Compound `COc1cc2c(Oc3ccc(NC(=O)NC(=O)Cc4ccc(F)cc4)cc3F)ccnc2cc1OCCCCN1CCOCC1` [Example 41, 1-{3-fluoro-4-[6-methoxy-7-(4-morpholin-4-yl-butoxy)quinolin-4-yloxy]phenyl}-3-[2-(4-fluorophenyl)-acetyl]urea] yielded an IC50 of 281 nM. The IC50 values of the last two compounds are within 1.5-fold of each other.

For the compound `COc1cc2nccc(Oc3ccc(NC(=S)NC(=O)Cc4ccccc4)c(C)c3)c2cc1OC` [Example 162, 1-[4-(6,7-dimethoxyquinolin-4-yloxy)-2-methylphenyl]-3-phenylacetylthiourea], 210 nM corresponded to half-maximal inhibition (IC50). The IC50 values of the last two compounds are within 1.5-fold of each other.

Take `COc1ccccc1NC(=O)NC(=O)Nc1ccc(Oc2ccnc3cc(OC)c(OC)cc23)cc1` [Example 266, N-(2-methoxyphenyl)-({[4-(6,7-dimethoxy-quinolin-4-yloxy)anilino]carbonyl}amino)methanamide]: inhibition was half-maximal at 181 nM (IC50).

For `COc1cc2nccc(Oc3ccc(NC(=S)NC(=O)Cc4ccc(C)cc4)cc3F)c2cc1OC` [Example 190, 1-[4-(6,7-dimethoxyquinolin-4-yloxy)-3-fluorophenyl]-3-(2-p-tolylacetyl)thiourea], the IC50 was found to be 224 nM.

The compound `COc1cc2nccc(Oc3ccc(NC(=O)NC(=O)Nc4c(F)cccc4F)cc3)c2cc1OC` [Example 265, N-(2,6-difluorophenyl)-({[4-(6,7-dimethoxy-quinolin-4-yloxy)anilino]carbonyl}amino)methanamide] gave an IC50 of 259 nM.

In turn, `COc1cc2nccc(Oc3cc(C)c(NC(=S)NC(=O)Cc4ccccc4)cc3C)c2cc1OC` [Example 163, 1-[4-(6,7-dimethoxyquinolin-4-yloxy)-2,5-dimethylphenyl]-3-phenylacetylthiourea] displayed an IC50 of 202 nM.

For `COc1cc2nccc(Oc3ccc(NC(=S)NC(=O)Cc4cccc(C(F)(F)F)c4)c(F)c3)c2cc1OC` [Example 202, 1-[4-(6,7-dimethoxyquinolin-4-yloxy)-2-fluorophenyl]-3-[2-(3-trifluoromethylphenyl)acetyl]-thiourea], the 50% inhibitory concentration (IC50) was 642 nM.

`COc1cc2nccc(Oc3ccc(NC(=S)NC(=O)CC4CCCCC4)c(F)c3)c2cc1OC` [Example 166, 1-(2-cyclohexylacetyl)-3-[4-(6,7-dimethoxy-quinolin-4-yloxy)-2-fluorophenyl]thiourea] yielded an IC50 of 318 nM.

Turning to `COc1cc2nccc(Oc3ccc(NC(=S)NC(=O)Cc4ccc(F)cc4)c(F)c3)c2cc1OC` [Example 72, 1-[4-(6,7-dimethoxyquinolin-4-yloxy)-2-fluoro-phenyl]-3-[2-(4-fluorophenyl)acetyl]thiourea], inhibition was half-maximal at 27.9 nM (IC50).

Turning to `COc1cc2nccc(Oc3ccc(NC(=O)NC(=O)Nc4ccccc4Cl)cc3)c2cc1OC` [Example 248, N-(2-chlorophenyl)-({[4-(6,7-dimethoxy-quinolin-4-yloxy)anilino]carbonyl}amino)methanamide], half-maximal inhibition (IC50) was put at 957 nM. Against the preceding compound, the IC50 is about 34-fold higher.

`COc1cc2nccc(Oc3ccc(NC(=S)NC(=O)[C@H](C)c4ccccc4)cc3)c2cc1OC` [Example 158, 1-[4-(6,7-dimethoxyquinolin-4-yloxy)phenyl]-3-(2-phenylpropionyl)thiourea] had an IC50 of 465 nM.

For `COc1cc2nccc(Oc3ccc(NC(=O)NC(=O)Cc4cccs4)cc3F)c2cc1OC` [Example 31, 1-[4-(6,7-dimethoxyquinolin-4-yloxy)-3-fluoro-phenyl]-3-(2-thiophen-2-ylacetyl)urea], the IC50 was 34.1 nM.

As for `COc1cc2nccc(Oc3ccc(NC(=O)NC(=O)Cc4ccsc4)c(F)c3)c2cc1OC` [Example 19, 1-[4-(6,7-dimethoxyquinolin-4-yloxy)-2-fluoro-phenyl]-3-(2-thiophen-3-ylacetyl)urea], the midpoint of inhibition, the IC50, lay at 104 nM. This IC50 is about 3-fold higher than that of the compound before.

For the compound `COc1cc2c(Oc3ccc(NC(=O)NC(=O)Cc4ccccc4)cc3F)ccnc2cc1OCCCCl` [Example 14, 1-{4-[7-(3-chloro-propoxy)-6-methoxyquinolin-4-yloxy]-3-fluorophenyl}-3-phenylacetylurea], the concentration for half-maximal inhibition (IC50) worked out at 291 nM.

For `COc1cc2c(Oc3ccc(NC(=S)NC(=O)Cc4cccc(Cl)c4)cc3F)ccnc2cc1OCC(O)CN1CCCCC1` (stereo not drawn) [Example 321, 1-[2-(3-Chloro-phenyl)-acetyl]-3-{3-fluoro-4-[7-(2-hydroxy-3-piperidin-1-yl-propoxy)-6-methoxy-quinolin-4-yloxy]-phenyl}-thiourea], the 50% inhibitory concentration (IC50) turned out to be 125 nM.

The compound `COc1cc2c(Oc3ccc(NC(=O)NC(=O)Cc4ccccc4)cc3F)ccnc2cc1OCCCn1ccnc1` [Example 305, 1-{3-Fluoro-4-[7-(3-imidazol-1-yl-propoxy)-6-methoxy-quinolin-4-yloxy]-phenyl}-3-phenylacetyl-urea] showed an IC50 of 21.4 nM.

With `COc1cc2nccc(Oc3ccc(NC(=S)NC(=O)Cc4ccccc4Cl)c(F)c3)c2cc1OC` [Example 182, 1-[2-(2-chlorophenyl)acetyl]-3-[4-(6,7-dimethoxyquinolin-4-yloxy)-2-fluorophenyl]thiourea], the IC50 came to 256 nM.

Take `COc1cc2nccc(Oc3ccc(NC(=O)NC(=O)Cc4ccccc4F)cc3)c2cc1OC` [Example 25, 1-[4-(6,7-dimethoxyquinolin-4-yloxy)phenyl]-3-[2-(2-fluorophenyl)acetyl]urea]: inhibition was half-maximal at 140 nM (IC50).

Regarding `COc1cc2nccc(Oc3ccc(NC(=O)CC(=O)Nc4cccc(O)c4)cc3)c2cc1OC` [Example 220, N-[4-(6,7-dimethoxyquinolin-4-yloxy)phenyl]-N′-(3-hydroxyphenyl)malonamide], the IC50 stood at 297 nM.

With `COc1cc2nccc(Oc3ccc(NC(=O)CC(=O)NC(C)c4ccccc4)cc3)c2cc1OC` (stereo not drawn) [Example 214, N-[4-(6,7-dimethoxyquinolin-4-yloxy)phenyl]-N′-(1-phenylethyl)malonamide], the IC50 is 2530 nM.

Compound `CCN(CC)CCOc1cc2nccc(Oc3ccc(NC(=S)NC(=O)Cc4ccccc4)cc3F)c2cc1OC` [Example 272, 1-{4-[7-(2-Diethylamine-ethoxy)-6-methoxy-quinolin-4-yloxy]-3-fluoro-phenyl}-3-phenylacetyl-thiourea] yielded a concentration for half-maximal inhibition (IC50) of 33.6 nM. Against the preceding compound, the IC50 is about 75-fold lower.

In turn, `COc1cc2nccc(Oc3ccc(NC(=O)NC(=O)Cc4ccccc4)cc3)c2cc1OC` [Example 4, 1-[4-(6,7-dimethoxyquinolin-4-yloxy)phenyl]-3-phenyl-acetylurea] displayed an IC50 of 75 nM.

As for `COc1cc2nccc(Oc3ccc(NC(=O)NC(=O)Cc4ccsc4)cc3Cl)c2cc1OC` [Example 21, 1-[3-chloro-4-(6,7-dimethoxyquinolin-4-yloxy)-phenyl]-3-(2-thiophen-3-ylacetyl)urea], inhibition was half-maximal at 188 nM (IC50).

`COc1cc2nccc(Oc3ccc(NC(=S)NC(=O)Cc4ccc(F)cc4F)c(F)c3)c2cc1OC` [Example 93, 1-[2-(2,4-difluorophenyl)acetyl]-3-[4-(6,7-dimethoxyquinolin-4-yloxy)-2-fluorophenyl]thiourea]: the midpoint of inhibition, the IC50, lay at 121 nM.

`COc1cccc(NC(=O)NC(=O)Nc2ccc(Oc3ccnc4cc(OC)c(OC)cc34)cc2)c1` [Example 244, N-(3-methoxyphenyl)-({[4-(6,7-dimethoxy-quinolin-4-yloxy)anilino]carbonyl}amino)methanamide] gave an IC50 of 342 nM.

With `COc1cc2nccc(Oc3ccc(NC(=S)NC(=O)Cc4ccccc4C)cc3Cl)c2cc1OC` [Example 149, 1-[3-chloro-4-(6,7-dimethoxyquinolin-4-yloxy)phenyl]-3-(2-o-tolylacetyl)thiourea], inhibition was half-maximal at 236 nM (IC50). The IC50 values of the last two compounds are within 1.5-fold of each other.

On to `COc1cc2nccc(Oc3ccc(NC(=O)NC(=O)Cc4cccs4)c(F)c3)c2cc1OC` [Example 30, 1-[4-(6,7-dimethoxyquinolin-4-yloxy)-2-fluoro-phenyl]-3-(2-thiophen-2-ylacetyl)urea], for which the IC50 is 35.1 nM.

Compound `COc1cc2nccc(Oc3ccc(NC(=S)NC(=O)Cc4cccc(C)c4)cc3Cl)c2cc1OC` [Example 78, 1-[3-chloro-4-(6,7-dimethoxyquinolin-4-yloxy)-phenyl]-3-(2-m-tolylacetyl)thiourea] yielded an IC50 of 66.3 nM.

Compound `COc1cc2nccc(Oc3ccc(NC(=O)NC(=O)Cc4ccc(F)c(F)c4)cc3F)c2cc1OC` [Example 35, 1-[2-(3,4-difluorophenyl)acetyl]-3-[4-(6,7-dimethoxyquinolin-4-yloxy)-3-fluorophenyl]urea] yielded an IC50 of 41.4 nM.

`COc1cc2nccc(Oc3ccc(NC(=S)NC(=O)Cc4ccc(F)cc4F)cc3F)c2cc1OC` [Example 94, 1-[2-(2,4-difluorophenyl)acetyl]-3-[4-(6,7-dimethoxyquinolin-4-yloxy)-3-fluorophenyl]thiourea]: the half-maximal inhibitory concentration (IC50) came to 30.7 nM.

`COc1cc2nccc(Oc3ccc(NC(=O)CC(=O)NCCC(C)(C)C)cc3)c2cc1OC` [Example 221, N-[4-(6,7-dimethoxyquinolin-4-yloxy)phenyl]-N′-(3,3-dimethyl-butyl)malonamide] yielded an IC50 of 221 nM. This IC50 lies about 7.2-fold higher than the previous one.

Regarding `COc1cc2nccc(Oc3ccc(NC(=S)NC(=O)Cc4ccc(F)c(F)c4)cc3F)c2cc1OC` [Example 199, 1-[2-(3,4-difluorophenyl)acetyl]-3-[4-(6,7-dimethoxyquinolin-4-yloxy)-3-fluorophenyl]thiourea], half-maximal inhibition (IC50) required 241 nM.

Compound `COc1cc2nccc(Oc3ccc(NC(=O)CC(=O)NC4CCC4)cc3)c2cc1OC` [Example 212, N-cyclobutyl-N′-[4-(6,7-dimethoxyquinolin-4-yloxy)phenyl]malonamide] returned an IC50 of 379 nM. Compared with the last compound, the IC50 is about 1.6-fold higher.

Turning to `COc1cc2nccc(Oc3ccc(NC(=O)CC(=O)NCC4CCCCC4)cc3)c2cc1OC` [Example 218, N-cyclohexylmethyl-N′-[4-(6,7-dimethoxy-quinolin-4-yloxy)phenyl]malonamide], the IC50 was found to be 479 nM.
